Reference: patent publication US10418127B2, “Method of formulating a skin-lightening composition” (The Procter & Gamble Company, priority 2012, dated 2019)

Legend:
[1] = test system: Chinese females, 25-55 years old with hyperpigmented spots; experiment: 9-week split-face, vehicle-controlled clinical skin tone benefit study; assay type: in vivo, human; conditions: 0.05% in SC-99 vehicle, vs vehicle
From the text: This Example provides evidence of the advantages of using composite signatures and illustrates clinical affirmation of the C-map model for predicting efficacy of skin-lightening agents. This Example supports embodiments related to composite signatures (as described at the end of Example 3). An illustrative “Skin Tone” Signature developed from a genomics study using a composite skin-lightening benchmark agent signature is derived from Niacinamide, Hexamidine, Sepiwhite, and NAG. The signature is used to query C-map and generate a list of potential skin-lightening agents. A top hit, Chlorhexidine Diactate (CD) is entered into clinical testing for confirmation of efficacy. The control for clinical efficacy is a 5% Niacinamide +1% Sepiwhite formulation in the control vehicle.
Primary endpoints are changes in color spot area fraction (image analysis) and melanin spot area fraction (NC2) from baseline. Secondary endpoints are changes from baseline in L*a*b (color image analysis), mean melanin gray scale (NC2), and melanin evenness (NC2). Texture area fraction and pore area fraction are also evaluated to explore impact on other aspects relating to overall skin tone. […] Statistically significant superiority to the high efficacy benchmark skin active agent to vehicle performance is the clinical success criteria.
Study Design: The experimental protocol included a 9-week (1-week preconditioning & 8-week treatment), randomized, double-blind, round robin, vehicle-controlled, split-face tone benefit study. The subject population included 330 Chinese females, 25-55 years old with hyperpigmented spots. 318 subjects completed the entire study. […] Olay Complete SPF 15 UV Moisturizing Lotion is concomitantly used during pre-conditioning and treatment. 0.5 g each test product per half-face (forehead to jaw line; ˜4 mg/cm^2) is dosed 2× a day (morning/evening). Color SAF and treatment area, Melanin SAF, gray scale, evenness by NC2, and additional measurement of Fine Lines and Wrinkle and Texture are by REAL 3.01A. Data collection points include baseline, and ends of weeks 4, 6 and 8. The tested hypothesis is that there is no difference in clinical endpoint versus the benchmark composition treatment. Study site is Kuntai Clinical Center, Beijing, China and study time frame is February 2010 (pre-conditioning) to April 2010.

[2] = test system: tert-Keratinocyte (tKC) cell line; experiment: C-map query with the composite skin tone benchmark signature; assay type: cell-based, human; conditions: composite signature of Niacinamide, Hexamidine, Sepiwhite and NAG
Experimental: Individual experiments (referred to as batches) generally comprise 30 to 96 samples analyzed using Affymetrix GeneChip® technology platforms, containing 6 replicates of the vehicle control (e.g., DSMO), 2 replicate samples of a positive control that gives a strong reproducible effect in the cell type used, and samples of the test material/perturbagen. Replication of the test material is done in separate batches due to batch effects. In vitro testing was performed in 6-well plates to provide sufficient RNA for GeneChip® analysis (2-4 μg total RNA yield/well).
Human telomerized keratinocytes (tKC) were obtained from the University of Texas, Southwestern Medical Center, Dallas, Tex. tKC cells were grown in EpiLife® media with 1× Human Keratinocyte Growth Supplement (Invitrogen, Carlsbad, Calif.) on collagen I coated cell culture flasks and plates (Becton Dickinson, Franklin Lakes, N.J.). Keratinocytes were seeded into 6-well plates at 20,000 cells/cm^2 24 hours before chemical exposure. Human skin fibroblasts (BJ cell line from ATCC, Manassas, Va.) were grown in Eagle's Minimal Essential Medium (ATCC) supplemented with 10% fetal bovine serum (HyClone, Logan, Utah) in normal cell culture flasks and plates (Corning, Lowell, Mass.). BJ fibroblasts were seeded into 6-well plates at 12,000 cells/cm^2 24 hours before chemical exposure. […]

melanocyte = conditions: in vitro; cited from earlier work
[3] = test system: ultraviolet-induced skin pigmentation; conditions: Shimizu K. et al., Planta Med 2002; cited from earlier work
tyrosinase = target: T1, tyrosinase (Homo sapiens, UniProt P14679); conditions: in vitro; cited from earlier work
T1 sequence (P14679 19-529): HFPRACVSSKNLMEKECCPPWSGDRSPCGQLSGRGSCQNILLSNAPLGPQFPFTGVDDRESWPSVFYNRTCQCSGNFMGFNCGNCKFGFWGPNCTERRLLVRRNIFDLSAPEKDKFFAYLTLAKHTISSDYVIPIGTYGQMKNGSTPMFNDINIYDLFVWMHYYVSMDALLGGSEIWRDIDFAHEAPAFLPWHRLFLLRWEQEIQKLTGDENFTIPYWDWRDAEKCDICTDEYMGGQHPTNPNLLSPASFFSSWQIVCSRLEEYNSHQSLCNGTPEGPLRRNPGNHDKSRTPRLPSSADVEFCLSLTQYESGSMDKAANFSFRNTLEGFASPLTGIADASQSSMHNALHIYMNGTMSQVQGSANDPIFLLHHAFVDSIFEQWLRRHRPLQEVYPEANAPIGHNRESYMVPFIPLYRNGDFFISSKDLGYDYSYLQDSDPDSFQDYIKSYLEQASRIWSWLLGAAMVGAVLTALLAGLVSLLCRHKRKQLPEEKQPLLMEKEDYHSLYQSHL

[4] = test system: melanosome transfer from melanocytes to keratinocytes; conditions: in vitro; cited from earlier work

CC(=O)O.CC(=O)O.NC(=N\CCCCCC/N=C(N)/N=C(\N)Nc1ccc(Cl)cc1)/N=C(\N)Nc1ccc(Cl)cc1 [CD, Chlorhexidine Diacetate]
spot area fraction color test ([1]; 2x a day, week 8): significantly fewer spots when compared to vehicle | Basal skin tone ([1]; week 8): demonstrated superiority | Pore area fraction ([1]; week 8): superior efficacy | Texture area fraction ([1]; week 8): superior efficacy | NC2 Melanin evenness test ([1]; weeks 6 and 8): superiority to the vehicle | spot area fraction NC2 test ([1]; weeks 6 and 8): significantly reduced fraction when compared to the vehicle | connectivity to the tone composite benchmark signature query [2]: top connectivity hit

C=CCCCCCCCCC(=O)N[C@@H](Cc1ccccc1)C(=O)O [N-undecylenoyl-L-phenylalanine]
binding of alpha-MSH to the melanocyte (melanocyte): inhibit biding of alpha-MSH to the melanocyte

COc1cc2oc(-c3ccc(O)cc3O)c(CC=C(C)C)c(=O)c2c(O)c1/C=C/C(C)C [artocarpin]
skin-lightening efficacy [3]: some efficacy for skin-lightening

N[C@H]1C(O)O[C@H](CO)[C@@H](O)[C@@H]1O (some centres unmarked) [glucosamine]
production of melanin (tyrosinase): reduces production of melanin by inhibiting activation of tyrosinase

NC(=O)c1cccnc1 [niacinamide]
melanosome transfer [4]: inhibits melanosome transfer from melanocytes to keratinocytes
